C=CCC1=C(OC(C)=O)C2=CC=C3C(C)=C(C)C(=O)CC3(C)C2=C(O)C1=O (stereo unspecified) showed a melting point of 93 °C. In the case of CN(C)CCN1C(=O)c2ccccc2N(C)c2ccccc21, the melting point is reported as 116 °C. In the case of Brc1ccc(-c2cnco2)cc1, the melting point is reported as 78 to 79 °C. Molecule O=C(O)c1cc(O)c2ccccc2n1 has a melting point of 282 °C. For CCOC(=O)C1=C(NC(=O)c2ccco2)Oc2c(c(=O)oc3ccccc23)C1c1ccc(Br)cc1 (stereo unspecified), the melting point was 140 °C. O=Cc1ccc(N2CCOCC2)s1 gave a melting point of 126 to 128 °C. O=C(Cl)C=Cc1ccccc1Cl showed a melting point of 38 °C. CC(C)C(C)C=CC(C)C1CCC2C3=CC=C4CC(O)CCC4(C)C3CCC21C (stereo unspecified) gave a melting point of 170 °C. BrC(=Cc1ccccc1)c1ccc(Br)c2c(Br)cccc12 showed a melting point of 171 °C. With CC1Cc2ccccc2N1NC(=O)c1ccc(Cl)c(S(N)(=O)=O)c1 (stereo unspecified) the melting point was 161 °C. For Cc1cccc(NC(=O)C(C(F)(F)F)C(F)(F)F)n1, the melting point was 107 °C. Work on O=CC(C=O)c1ccccc1[N+](=O)[O-] yielded a melting point of 118 to 123 °C. Molecule COc1ccc(C2Nn3c(nnc3-c3ccccc3)S2)cc1 (stereo unspecified) has a melting point of 160 °C. CC1(C(=O)O)CCC2(C)CCC3(C)C(=CC(=O)C4C5(C)CCC(O)C(C)(C)C5CCC43C)C2C1 (stereo unspecified) showed a melting point of 296 °C. With CC1=NNC(=O)C1(Br)Br the melting point was 131 °C. COC(=O)c1c(C(=O)OC)c(-c2ccccc2)c2c(Cl)nc(Cl)cc2c1Sc1ccccc1 showed a melting point of 178 °C. Molecule CCCCCOC(=O)COc1cc(N2C(=O)C3=C(CCCC3)C2=O)c(F)cc1Cl has a melting point of 89 °C. Work on O=C(Cl)c1csc(Cc2c(Cl)cccc2Cl)n1 yielded a melting point of 104 °C. Cc1onc(-c2c(Cl)cccc2Cl)c1C(=O)NN showed a melting point of 150 to 152 °C. In the case of CCC(O)(COC(N)=O)c1ccccc1 (stereo unspecified), the melting point is reported as 55 °C. In the case of FC(F)(F)C(F)(F)C(F)(F)C(F)(F)C(F)(F)C(F)(F)C(F)(F)C(F)(F)C(F)(F)C(F)(F)CCI, the melting point is reported as 82 to 83 °C. For CC1(C)CC(=O)C2=C(C1)Nc1c(ccc3ccccc13)C2c1ccc(O)cc1 (stereo unspecified), the melting point was 312 °C. O=C(Nc1ccc(O)cc1)c1ccccc1O gave a melting point of 179 °C. Molecule CCOP(=S)(OCC)SC1OCCOC1SP(=S)(OCC)OCC (stereo unspecified) has a melting point of -2 °C. In the case of CC12CCC(/C(=N/O)C/C1=N\O)C2(C)C (stereo unspecified), the melting point is reported as 209 °C. Molecule Nc1c(F)c(F)c(C(=O)O)c(F)c1F has a melting point of 183 °C. Molecule Cc1cccc(C(C)C)c1O has a melting point of -14.5 °C. Molecule OCc1ccc(SC(F)(F)F)cc1 has a melting point of 52 °C. In the case of Cc1ccc(N=C=S)c([N+](=O)[O-])c1, the melting point is reported as 65 °C. CCC(C=C1C(=O)C2(C)CCC1C2(C)C)C(=O)O (stereo unspecified) gave a melting point of 118 °C. For COC(=O)C(C)Cl (stereo unspecified), the melting point was -10 °C. Work on CCCCc1ccc(C(=O)O)nc1 yielded a melting point of 97 °C. Work on Oc1ccccc1N1CCCC1 yielded a melting point of 111 °C. With CNC(=S)C#N the melting point was 37 to 46 °C. For Cc1sc2c(c1C)C(=O)CS(=O)(=O)N2C, the melting point was 122 to 124 °C. Work on O=C1CCCc2c1nc(-c1ccccc1)n2O yielded a melting point of 247 to 257 °C. Work on COc1cc(C(C)=O)cc(OC)c1O yielded a melting point of 123 to 128 °C. With COc1cc(NC(=S)Nc2ccc(Br)cc2)c(C(c2ccc(C)o2)c2ccc(C)o2)cc1OC the melting point was 167 °C. For O=C(Cl)c1ccc(-c2cccs2)s1, the melting point was 73.3 to 74.4 °C. Molecule Cc1cc(C(C)(C)C)ccc1O has a melting point of 27.5 °C. In the case of O=C(Cc1ccccc1)c1ccc2c3c(cccc13)CC2, the melting point is reported as 114 °C. Molecule O=S(=O)(NC(=S)Nc1ccccc1)c1ccccc1 has a melting point of 144 to 145 °C. For OCc1cn2ccccc2n1, the melting point was 102 to 103 °C. In the case of CCOC(=O)C(C#N)=C(N)c1cc2cc(Br)ccc2oc1=O, the melting point is reported as 270 to 272 °C. O=C(O)C1NCCS1 (stereo unspecified) showed a melting point of 182 °C. Molecule O=C(c1ccc(OCc2ccccc2)cc1)c1cn(C(=O)c2ccc(OCc3ccccc3)cc2)c2ccccc12 has a melting point of 181 °C. For Nc1c2c(nc3ccccc13)CCCC2, the melting point was 184 °C. With Cc1ccc([N+](=O)[O-])cc1Cl the melting point was 66.5 °C. In the case of O=[N+]([O-])c1ccc(OC(F)F)cc1, the melting point is reported as 34 °C. In the case of COP(=S)(OC)Oc1ccc(S(=O)(=O)N(C)C)cc1, the melting point is reported as 53 °C. With CN(C)CCCN the melting point was -60 °C. Molecule CC(C)C1=CC2=C(CC1)C1(C)CCCC(C)(C(=O)O)C1CC2 (stereo unspecified) has a melting point of 164 °C. Work on N#Cc1c(N)cccc1Cl yielded a melting point of 135 to 137 °C. Work on O=C1CCCCCCCCCCCCCCCO1 yielded a melting point of 33.5 °C. In the case of COc1ccc(C=Cc2ccc(OC)cc2)cc1, the melting point is reported as 214 °C. With CC(=O)Nc1ccccc1CCNCCc1ccccc1NC(C)=O the melting point was 110 °C. In the case of CC1CCC(C(C)C)C(OC(=O)C(C=Cc2ccccc2)C(=O)c2ccccc2)C1 (stereo unspecified), the melting point is reported as 104 °C. COC(=O)c1cnccn1 showed a melting point of 58 °C. O=C(/C=C/c1ccc(Cl)cc1Cl)c1ccccc1 showed a melting point of 72.3 °C. COc1ccc(C(=O)OCCOc2ccc(C=CC(=O)c3ccccc3)cc2)cc1 gave a melting point of 113 °C. In the case of COC(=O)C(C)O (stereo unspecified), the melting point is reported as -66 °C. CC(C)CC(=O)NC(C(=O)NC(C(=O)NC(CC(C)C)C(O)CC(=O)NC(C)C(=O)NC(CC(C)C)C(O)CC(=O)O)C(C)C)C(C)C (stereo unspecified) showed a melting point of 233 °C. Molecule O=C(O)C1(c2cccc(F)c2)CCCC1 has a melting point of 149 to 153 °C. Fc1cccc(Cl)c1CCl gave a melting point of 7 °C. Molecule c1ccc2c(c1)CCCN2 has a melting point of 20 °C. In the case of N#Cc1c(F)cccc1Oc1ccc(F)cc1, the melting point is reported as 73 to 74 °C. With CCCCCCCCOc1ccc(C(C)=O)cc1 the melting point was 30 to 32 °C. Work on ClC1=C(Cl)C2(Cl)C3C4OC4C(Cl)C3C1(Cl)C2(Cl)Cl (stereo unspecified) yielded a melting point of 160 °C. CC(C)(C)OC(=O)NCc1cccc(CO)c1 showed a melting point of 51 to 55 °C. O=[N+]([O-])c1ccc(C(Br)C(Br)c2ccc(C(Br)C(Br)c3ccc([N+](=O)[O-])cc3[N+](=O)[O-])cc2)c([N+](=O)[O-])c1 (stereo unspecified) showed a melting point of 265 °C. Molecule NNc1ncnc2scc(-c3ccccc3)c12 has a melting point of 150 to 152 °C. CCNC(N)=S showed a melting point of 112 °C. With COc1cc(/C=C\C(=O)NCCc2ccc(OCc3ccccc3)c(OC)c2)ccc1OCc1ccccc1 the melting point was 163 °C. For O=C1OC2(c3ccc(Cl)cc3Oc3cc(Cl)ccc32)c2ccccc21, the melting point was 253 to 255 °C. Molecule C1=CC2CC1[C@@H](P(c1ccccc1)c1ccccc1)[C@@H]2P(c1ccccc1)c1ccccc1 has a melting point of 120 to 125 °C. In the case of COCCCN, the melting point is reported as -65 °C. CCCN(CCC)C(=O)COC(=O)c1ccccc1 gave a melting point of 20 °C. For CC12CCC(O)CC1CCC1C2CCC2(C)C(C3=CC(=O)OC3)C(O)CC12O (stereo unspecified), the melting point was 234 °C. Work on CCOC(=O)NCc1ccccc1 yielded a melting point of 49 °C. Molecule Cc1cccc(Nc2ccncc2S(=O)(=O)NC(=O)NC(C)C)c1 has a melting point of 163 °C. With O=[N+]([O-])c1ccc2ncccc2c1 the melting point was 154 °C. With O=CC(C=O)c1ccc(Cl)cc1 the melting point was 137 to 143 °C. With CCCCCCCCCCCCCCCCCCCCCC1CCCC1 the melting point was 42 °C. In the case of O=C(O)Cc1ccccc1Oc1ccc(Cl)cc1Cl, the melting point is reported as 112 °C. In the case of Cc1n[nH]cc1[N+](=O)[O-], the melting point is reported as 133 °C. Cc1ccc(C(=O)c2ccccc2)cc1 showed a melting point of 59.5 °C. Molecule CN(C)c1ccc([N+]([O-])=CC(=O)c2ccc(C(=O)C=[N+]([O-])c3ccc(N(C)C)cc3)cc2)cc1 has a melting point of 132 to 134 °C. Molecule Cc1cc(C(F)(F)F)cc(=O)[nH]1 has a melting point of 130 °C. Work on O=C(O)C=Cc1cc([N+](=O)[O-])ccc1Sc1ccc(Cl)cc1 yielded a melting point of 212 to 215 °C. In the case of CN(C)c1ccc(C=CC(=O)c2ccccc2)cc1, the melting point is reported as 114 °C. Molecule CC(C)(C)CCO has a melting point of -60 °C. O=C(Nc1nccs1)C(F)(F)C(F)(F)C(F)(F)C(F)(F)C(F)(F)C(F)(F)C(F)(F)C(F)(F)F showed a melting point of 146 °C. COc1cc2noc(-c3ccc(C)o3)c2cc1OC gave a melting point of 146 °C. Work on O=C(O)c1nc(Cl)c(Cl)c(Cl)c1Cl yielded a melting point of 172 °C. NNC(=O)c1sc2ccccc2c1Cl gave a melting point of 181 to 183 °C. Cc1cc(=O)[nH]cc1Br gave a melting point of 196 to 201 °C. Work on COC(=O)c1cc(O)nc(O)n1 yielded a melting point of 244 °C. CC12CCC(O)C(C)(C)C1C(=O)C(=O)c1c(O)c(C(CO)CO)c(O)c(O)c12 (stereo unspecified) gave a melting point of 238 to 240 °C. In the case of N#Cc1cc2ccccc2cc1C#N, the melting point is reported as 253 to 257 °C. With CCc1c2c(nc3ccc(OC(=O)N4CCC(N5CCCCC5)CC4)cc13)-c1cc3c(c(=O)n1C2)COC(=O)C3(O)CC (stereo unspecified) the melting point was 222 °C. In the case of O=C(c1ccccc1)c1cnc2ccccn2c1=O, the melting point is reported as 152 to 153 °C. In the case of c1c2c(cc3c1CCCN3)NCCC2, the melting point is reported as 113 °C. Work on NC(=O)c1cccc(CCl)c1 yielded a melting point of 125 to 127 °C. In the case of O=Cc1ccc(OCc2ccc(Cl)c(Cl)c2)cc1, the melting point is reported as 92 to 93 °C. COc1ccc(/N=N/c2sc(/C(C#N)=N/Nc3ccc(F)cc3)nc2C)cc1 showed a melting point of 214 °C. CC1=CC(=O)CC(=O)O1 gave a melting point of 188 °C. Brc1ccccc1Oc1ccccc1 showed a melting point of under 20 °C. In the case of O=C(O)C=Cc1c(F)c(F)c(F)c(F)c1F, the melting point is reported as 153 °C. In the case of CC(C)(C)C(O)C(=Cc1ccc(Cl)cc1Cl)n1cncn1 (stereo unspecified), the melting point is reported as 148 to 149 °C. In the case of O=C(O)c1ccnc(C(=O)O)c1, the melting point is reported as 249 °C. Work on COc1ccc(C(C)NCC(OC)OC)cc1O (stereo unspecified) yielded a melting point of 88 °C. In the case of Clc1cc(C(Cl)Cl)c(Cl)cc1C(Cl)Cl, the melting point is reported as 72 °C. For CCOC(=O)c1sc(-c2cccc(N)c2)nc1C, the melting point was 84 °C. Molecule O=S1(=O)OC(Cl)c2ccccc21 (stereo unspecified) has a melting point of 110 to 116 °C. For CNC(N)=O, the melting point was 103 °C. With COC(=O)C(c1ccccc1Cl)N1CCc2sccc2C1 (stereo unspecified) the melting point was 158 °C. Molecule Cc1ccc(C(c2ccc(Br)cc2)c2ccc(C)o2)o1 has a melting point of 64 °C. For O=C(NCNN(CNC(=O)c1ccccc1)CNC(=O)c1ccccc1)c1ccccc1, the melting point was 123 to 125 °C. In the case of CCOC(=O)c1cc(C)nc(Cl)n1, the melting point is reported as 56.5 to 59 °C. With CCOC(=O)C(=O)C=CN(C)C the melting point was 38 °C. For Cc1cc(O)c([N+](=O)[O-])cc1Cl, the melting point was 133 °C.
